{"source": "patent US20190270796A1", "about": "“THERAPEUTIC AGENT FOR PERIODONTITIS AND COMPOSTION FOR TREATING PERIODONTITIS” (NIHON UNIVERSITY, priority 2016, published 2019)", "key": {"[1]": {"test_system": "gingival fibroblasts which extremely decompose collagen gel, derived from a patient with periodontitis", "test": "three-dimensional collagen gel culture system, collagen degradation (Experimental Example 1)", "assay_type": "cell-based, human", "conditions": "day 5 of suspension culture; compared to control; HGF 50 ng/mL; HGF-neutralizing antibody 20 μg/mL", "method": "First, a three-dimensional collagen gel culture system of gingival fibroblasts previously developed by the present inventors will be described with reference to FIGS. 1(a) to 1(d). In this culture system, it is possible to evaluate the influence of a test substance on degradation of collagen in periodontal tissues in vitro and to obtain results close to in vivo.\nFirst, as shown in FIG. 1(a), gingival fibroblasts derived from a patient with periodontitis and a test substance are added into collagen gel, and the mixture is poured into a petri dish. Subsequently, the mixture is incubated at 37° C. for 30 minutes and the collagen gel is hardened. Subsequently, gingival epithelial cells derived from the patient with periodontitis are seeded on the hardened collagen gel and incubated overnight.\nSubsequently, as shown in FIG. 1(b), the collagen gel is peeled off from the petri dish to make the collagen gel float. At this time, the test substance is also added into a medium in which the collagen gel floats. Subsequently, the suspension culture is continued for 5 days. Meanwhile, the collagen gel is degraded and contracts due to various factors produced by an interaction between the gingival fibroblasts and the gingival epithelial cells. […]\nSubsequently, as shown in FIG. 1(c), the amount of residual collagen is quantitatively determined on day 5 of suspension culture. […]"}, "[2]": {"test_system": "gingival fibroblasts extremely decomposing collagen gel (PAF1, PAF2)", "test": "weight of collagen gel after three-dimensional culture (Experimental Example 3)", "assay_type": "cell-based, human", "conditions": "HGF 50 ng/mL, HGF-neutralizing antibody 20 μg/mL; for weight of collagen gel: day 5 of suspension culture", "method": "Cell matrix type I-A (Nitta Gelatin Inc.), 5×DMEM, a buffer solution for reconstitution (Nitta gelatin) were mixed with each other to prepare a collagen mixed solution. An HGF-neutralizing antibody (model “AB-294-NA”, R&D) was added to this collagen mixed solution so that the final concentration became 20 μg/mL. In addition, a sample containing no test substance (control) and a sample to which HGF (model “100-39”, PeproTech, Inc.) was added so that the final concentrations became 50 ng/mL were prepared for comparison.\nSubsequently, the same gingival fibroblasts, which extremely decompose collagen gel, as in Experimental Example 1 were mixed with these collagen mixed solutions and seeded in a 6-well plate so that the cell density became 2.5×10^5 cells/well. Subsequently, the mixture was incubated at 37° C. for 30 minutes and the collagen gel was hardened. Two kinds of cells (hereinafter, referred to as “PAF1” and “PAF2”) were used as gingival fibroblasts extremely decomposing collagen gel.\nSubsequently, the same gingival epithelial cells as in Experimental Example 1 were dispersed by trypsin treatment, and were then seeded on the above-described collagen gel at 2×10^5 cells/well to form a single layer of the epithelial cells.\nSubsequently, each prepared collagen gel was incubated at 37° C. After 24 hours, each collagen gel piece was peeled off from a plate and was suspended (on day 1 of culture). HGF-neutralizing antibodies having the same concentration as that described above were added to a medium of a test group. Subsequently, suspension culture of collagen gel was continued at 37° C.\nCollagen gel was collected on day 5 after the start of the suspension culture, and the weight thereof was measured. FIGS. 5(a) and 5(b) are photographs of collected collagen gel. […] In FIGS. 5(a) and 5(b), the “control” indicates control collagen gel, “HGF” indicates collagen gel to which HGF is added, and the “HGF-neutralizing antibody” indicates collagen gel to which an HGF-neutralizing antibody is added."}, "[3]": {"test_system": "normal gingival fibroblasts", "test": "three-dimensional collagen gel culture system with normal gingival fibroblasts (Experimental Example 1)", "assay_type": "cell-based, human", "conditions": "day 5 of suspension culture, HGF 25 and 50 ng/mL, HGF-neutralizing antibody 20 μg/mL", "excerpt": "In addition, gingival fibroblasts with a low resolution of collagen gel (hereinafter, sometimes referred to as “normal gingival fibroblasts”) were used as controls. Gingival fibroblasts with which the contraction of collagen gel having a diameter of 35 mm remained to a diameter of about 10 mm were used as normal gingival fibroblasts.\nIn addition, the same collagen gel as the above-described collagen gel was produced for comparison except that the above-described normal gingival fibroblasts were used instead of the gingival fibroblasts which extremely decompose collagen gel.\nSubsequently, each prepared collagen gel piece was incubated at 37° C. After 24 hours, each collagen gel piece was peeled off from a plate and was suspended (on day 1 of culture). Each test substance (HGF-neutralizing antibody and HGF) having the same concentration as that described above was added to a medium. Subsequently, suspension culture of collagen gel was continued at 37° C., and collagen gel was observed on day 5 after the start of the suspension culture.\nFIGS. 2(a) to 2(h) are photographs of each collagen gel piece on day 5 after the start of the suspension culture. Each mass floating in each well in FIGS. 2(a) to 2(h) is collagen gel. FIGS. 2(a) to 2(d) show results of collagen gel containing gingival fibroblasts which extremely decompose collagen gel. […]"}, "[4]": {"test_system": "monkey gingival fibroblasts which extremely decompose collagen gel", "test": "three-dimensional collagen gel culture system with monkey gingival fibroblasts (Experimental Example 4)", "assay_type": "cell-based, Macaca fascicularis", "conditions": "HGF 50 ng/mL, HGF-neutralizing antibody 20 μg/mL", "excerpt": "Before clinical application of the therapeutic agent for periodontitis of the present invention to humans, it is necessary to conduct experiments using monkeys. An effect of an HGF-neutralizing antibody on degradation of collagen using gingival fibroblasts derived from a monkey naturally occurred periodontitis was examined using the same three-dimensional collagen gel culture system as in Experimental Example 1. Since it is difficult to culture gingival epithelial cells of monkeys, human gingival epithelial cells were used as gingival epithelial cells. Tissue of a gingiva piece derived from an euthanasia individual of a monkey (Macaca fascicularis, raised in Tsukuba Primate Research Center) naturally occurred periodontitis was cut, and then, the tissue pieces were allowed to stand on the bottom of a cell culture plate. Subsequently, outgrown cells from the tissue pieces were subcultured as a first generation to obtain monkey gingival fibroblasts. The obtained gingival fibroblasts were once cultured in the above-described three-dimensional collagen gel culture system to observe collagen resolution, and gingival fibroblasts which extremely decompose collagen gel (that is, with which collagen gel were degraded and contracted). […]"}}}
{"substance": "HGF: HGF (model “100-39”, PeproTech, Inc.), hepatocyte growth factor added for comparison", "values": [{"measurement": "degradation of collagen (observation of collagen gel)", "setting": "[1]", "result": "clearly accelerated"}, {"measurement": "weight of collagen gel", "setting": "[2]; PAF1, control 0.013 g", "result": 0.011, "unit": "g"}, {"measurement": "degradation of collagen gel", "setting": "[2]; PAF1 and PAF2, compared to control collagen gel", "result": "remarkably accelerated"}, {"measurement": "weight of collagen gel", "setting": "[2]; PAF2, control 0.034 g", "result": 0.028, "unit": "g"}, {"measurement": "difference in decomposition of collagen", "setting": "[3]", "result": "no difference"}, {"measurement": "degradation of collagen (observation of collagen gel)", "setting": "[4]; monkey gingival fibroblasts with human gingival epithelial cells (SAF1, SAF2), day 5 of suspension culture, compared to controls", "result": "promoted"}, {"measurement": "vacuoles around cells (hematoxylin-eosin staining of thin section of collagen gel)", "setting": "[4]; monkey gingival fibroblasts, SAF1", "result": "a vacuole is formed around the cell"}]}
